The text below walks through data of ChEMBL document CHEMBL1201862, “PubChem BioAssay data set” (2004).

Usually GI50 stands for the concentration at which growth is held to half of that of the control.

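Results reflect a 48-hour exposure of cells in 96-well plates to compound at five concentrations. Here, GI50 denotes the concentration required for 50% inhibition of growth.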 Active and inactive are the calls of the source. Rule as the data show it: active = GI50 up to about 1.1 µM and inactive = higher.

Experiment in all cases: DTP human tumour cell line panel, 48 h
Test [1] concerns HOP-62.
Test [2] relates to KM12.
The test system of test [3] is A549.
In test [4] the test system is HCT-15.
Test [5] concerns HT-29.
In test [6] the test system is SK-OV-3.
Test [7] concerns K562.
The subject of test [8] is SK-MEL-5.
Test [9] has as its system SW-620.
The test system of test [10] is M14.
For test [11], the system named is LOX IMVI.
In test [12] the test system is UACC-62.
In test [13] the test system is SF-295.
Test [14] concerns COLO 205.
Test [15] has as its system RXF 393.
For test [16], the system named is NCI-H460.
The subject of test [17] is HOP-92.

As for `COc1ccc(OC)c(-c2cc(O)c3cc4c(cc3n2)OCO4)c1`, the GI50 in [1] is 13.9 µM (inactive); in [2], 3.86 µM (inactive); in test [3] it was 5.87 µM (inactive); in test [4], 4.22 µM; in [5], 4.12 µM (inactive); in test [6] it was 3.49 µM (inactive). Moreover, the GI50 in [7] was 4.11 µM (inactive); in [8], 2.98 µM (inactive); in test [9], 3.83 µM (inactive); in [10], 3.94 µM (inactive); in [11] it was 6.07 µM (inactive); in test [12] it was 3.58 µM (inactive). Moreover, the GI50 is 4.15 µM (inactive) in test [13]; 2.65 µM (inactive) in test [14]; 2.99 µM (inactive) in test [15]; 3.41 µM (inactive) in test [16]; 3.54 µM (inactive) in [17].

Consider `Oc1cc(-c2cccs2)nc2cc3c(cc12)OCO3`, for which the GI50 in test [1] is 3.96 µM (inactive); in test [2], 2.45 µM (inactive); in test [3], 4.9 µM (inactive); in test [4], 4.23 µM; in test [5], 13.6 µM (inactive); in [6], 2.7 µM (inactive). For the same molecule, the GI50 in test [7] was 2.42 µM (inactive); in [8], 1.75 µM (inactive); in [9], 3.03 µM (inactive); in test [10], 2.55 µM (inactive); in [11], 4.92 µM (inactive); in test [12] it was 2.92 µM (inactive). Also, the GI50 was 3.48 µM (inactive) in test [13]; 9.06 µM (inactive) in test [14]; 1.9 µM (inactive) in test [15]; 3.24 µM (inactive) in test [16]; > 100 µM (inactive) in test [17].

`O=C(c1ccccc1)N1C2CCC1C(C(F)(F)F)=C2C(F)(F)F`: the GI50 in test [1] is > 100 µM (inactive); in [2], > 100 µM (inactive); in test [3] it was > 100 µM (inactive); in test [4], over 100 µM; in test [5], > 100 µM (inactive); in [6], > 100 µM (inactive). Also, the GI50 in test [7], in test [8], in test [9], in test [10], in test [11] and in [12] was > 100 µM (inactive) in each case. For the same molecule, the GI50 in [13], in [14], in test [15], in test [16] and in test [17] was > 100 µM (inactive) throughout.

`CCSc1nc2sc(C)c(C)c2c(=O)n1-c1ccc(C(=O)O)cc1`: the GI50 was 88.5 µM (inactive) in test [1]; 54.8 µM (inactive) in [2]; 65.3 µM (inactive) in test [3]; 39.9 µM in test [4]; 61 µM (inactive) in test [5]; > 100 µM (inactive) in [6]. In addition, the GI50 in test [7] was 55.5 µM (inactive); in test [8], 49 µM (inactive); in test [9] it was > 100 µM (inactive); in [10], > 100 µM (inactive); in test [11] it was 56.2 µM (inactive); in test [12], > 100 µM (inactive). The GI50 is 40.9 µM (inactive) in test [13]; > 100 µM (inactive) in test [14]; 25.5 µM (inactive) in [15]; 60.1 µM (inactive) in test [16]; > 100 µM (inactive) in [17].

With `COc1c(OC(C)=O)cc2c(OC(C)=O)c1CC(C)CC(OC)C(O)C(C)/C=C(\C)C(OC(N)=O)C(OC)/C=C\C=C(/C)C(=O)N2` (stereo not drawn), the GI50 is > 100 µM (inactive) in [1]; > 100 µM (inactive) in [2]; > 71.3 µM (inactive) in test [3]; over 64.7 µM in test [4]; > 81.8 µM (inactive) in test [5]; > 100 µM (inactive) in [6]. Also, the GI50 in test [7] was > 26.3 µM (inactive); in test [8], > 100 µM (inactive); in test [9], 24 µM (inactive); in [10], > 100 µM (inactive); in test [11], > 100 µM (inactive); in test [12], > 100 µM (inactive). The GI50 in test [13] is > 100 µM (inactive); in [14], 5.77 µM (inactive); in test [15] it was 98.2 µM (inactive); in test [16], > 100 µM (inactive); in test [17] it was 96.8 µM (inactive).

Take `COc1cc([C@@H]2c3cc4c(cc3[C@@H](NCc3ccc(C#N)cc3)C3COC(=O)[C@@H]32)OCO4)cc(OC)c1O` (stereo partly drawn): the 50% growth inhibitory concentration (GI50) in test [1] is 0.31 µM (active); in test [2], 1.4 µM (inactive); in test [3], 0.0923 µM (active); in [4] it was 1.16 µM; in [5] it was 1.19 µM (inactive); in test [6], 0.989 µM (active). Also, the GI50 in test [7] was 1.54 µM (inactive); in test [8], 1.5 µM (inactive); in test [9], 0.766 µM (active); in test [10], 1.1 µM (active); in test [11], 0.778 µM (active); in [12], 0.55 µM (active). Moreover, the GI50 in [13] is 0.533 µM (active); in test [14], 0.948 µM (active); in test [15], 2.96 µM (inactive); in test [16], 0.0344 µM (active); in test [17], 1.88 µM (inactive).

`CCOC(=O)/C(C#N)=C/c1[nH]c(C)c(C)c1C`: the GI50 in test [1] is > 100 µM (inactive); in test [2], > 100 µM (inactive); in test [3], > 100 µM (inactive); in [4] it was over 100 µM; in [5] it was > 100 µM (inactive); in [6] it was > 100 µM (inactive). Also, the GI50 in test [7], in test [8], in test [9], in [10], in [11] and in [12] was > 100 µM (inactive) throughout. Also, the GI50 in test [13], in [14], in test [15], in [16] and in test [17] was > 100 µM (inactive) each time.

For the molecule `CCCCCCCCCCCCCC(=O)OC1CC(=O)OC1CO` (stereo not drawn), the GI50 in [1] was > 100 µM (inactive); in [2] it was 22.9 µM (inactive); in test [3], 55.1 µM (inactive); in test [4], 18.5 µM; in test [5], 32.1 µM (inactive); in test [6] it was > 100 µM (inactive). Moreover, the GI50 is 21.9 µM (inactive) in test [7]; 91.8 µM (inactive) in test [8]; 71.6 µM (inactive) in test [9]; 19.3 µM (inactive) in test [10]; 28.2 µM (inactive) in test [11]; 19.2 µM (inactive) in test [12]. The GI50 in test [13] is 21.5 µM (inactive); in test [14] it was > 100 µM (inactive); in test [15], > 100 µM (inactive); in test [16] it was 34.2 µM (inactive); in [17] it was 17 µM (inactive).

With `CS(=O)(=O)OCCn1cnc2nc(NC(=O)c3ccccc3)[nH]c(=O)c21`, the GI50 was > 100 µM (inactive) in test [1]; > 100 µM (inactive) in test [2]; > 100 µM (inactive) in test [3]; over 100 µM in test [4]; > 100 µM (inactive) in [5]; > 100 µM (inactive) in test [6]. The GI50 in test [7], in [8], in test [9], in test [10], in test [11] and in [12] was > 100 µM (inactive) in each case. Moreover, the GI50 in test [13], in test [14], in test [15], in test [16] and in test [17] was > 100 µM (inactive) throughout.
